The results in this text go back to US20180133211A1, “METHODS AND MATERIALS FOR PROMOTING BONE FORMATION” (Mayo Foundation for Medical Education and Research, priority 2015, published 2018).

Holding throughout (format): cell-based, mouse
The subject of one test is BMSCs. As to the kind of experiment: ECM mineralization by Alizarin Red stain. The conditions noted are these: long-term treatment in osteogenic media. On the procedure: Mouse bone marrow mesenchymal stem cells were isolated from aseptically dissected long bones of 6-week old C57BL/6 mice (Himberg, Austria). The marrow cavities were flushed with sterile medium using a 25-gauge needle, and the culture was established in α-MEM supplemented with 10% FCS and […]. After 48 hours of culture at 5% CO2 and 37° C., the non-adherent cells were removed by gentle rinsing with PBS. At confluence, cells were harvested and seeded at a density of 3,000/cm^2 for cell experiments. For osteogenic differentiation, cells were cultured in α-MEM supplemented with 10% FBS, […], 100 nM dexamethasone, 10 mM β-glycerophosphate, and 50 μg/mL ascorbic acid with or without L- or DL-SFN. Culture medium was renewed twice a week, and cells were cultured for the periods indicated in the result section.
Calvariae from 2 to 3-day-old and from 7-week old C57BL/6 mice were dissected aseptically. […] Thereafter, one part of the calvariae were fixed for 1 hour in 4% para-formaldehyde (PFA), and mineralization was measured by Alizarin Red S stain (Sigma-Aldrich). […] Alizarin Red S absorbance was measured at 562 nm in a multi-plate reader (Tecan, Maennedorf, Switzerland) and normalized to total protein amount measured by bicinchoninic acid assay (Thermo Fisher Scientific, Waltham, Mass., USA). […]

Test [1] relates to RAW 264.7 cells. As to the kind of experiment: Caspase activity (CASPASE-GLO). The conditions noted are these: RAW 264.7, 3 μM, 24 hours. On the procedure:
(§1) Caspase 3/7 and caspase 8 activities were measured by using the CASPASE-GLO® 3/7 and CASPASE-GLO® 8 assay Kit (Promega, Madison, Wis., USA) following manufactures instructions. Briefly, after treatments, cells were lysed, and substrate cleavage by caspases was measured by the generated luminescent signal with a 96 multi-well luminometer (Glomax, Promega). Each experiment was performed in quintuplicate and experiments were carried out twice.

Test [2] relates to MC3T3-E1 cells. As to the kind of experiment: Caspase activity (CASPASE-GLO). The settings on record: MC3T3-E1, 3 μM, 24 hours. On the procedure: as §1
Test [3] has as its system MLO-Y4 cells. As to the kind of experiment: Caspase activity (CASPASE-GLO). The conditions noted are these: MLO-Y4, 3 μM, 24 hours. As to the method: as §1
Test [4] deals with RAW 264.7 cells. As to the kind of experiment: Global cytosine 5-hydroxymethylation (5hmC). The settings on record: RAW 264.7, 3 μM, 16 hours. On the procedure:
(§2) Cells were fixed with 4% paraformaldehyde in PBS for 20 minutes at room temperature and permeabilized with 0.2% triton in 4% paraformaldehyde in PBS. Thereafter, cell layers were blocked for 20 minutes with 10% blocking reagent (Roche) and incubated for one further hour with 0.5 μg/mL anti-5hmC antibody (Abgent). Afterwards, the cells were washed thrice with PBS and incubated for one further hour with an Alexa488 labeled secondary antibody (Invitrogen) diluted 1:300 in blocking buffer. Finally, nuclei were stained with Hoechst 33258 dye (Polysciences).
(§3) For immunostaining, cell slides were mounted with VECTASHIELD® mounting media, and immunofluorescence was visualized on a Leica laser-scanning microscope. No signal was found by using only the Alexa488 labeled secondary antibody (Invitrogen). For quantification of global cytosine 5hmC, the fluorescence in the plates was measured with a multiwell plate reader (Tecan). The amount of DNA (nuclei signal) was estimated using a standard curve prepared from calf thymus DNA (Roche). The signal of the fluorescence of the 5hmC staining was normalized to the amount of DNA. Also, in this case, no signals were found when only the Alexa488 labeled secondary antibody (Invitrogen) was used.

Test [5] concerns MC3T3-E1 cells. As to the kind of experiment: Global cytosine 5-hydroxymethylation (5hmC). The settings on record: MC3T3-E1, 3 μM, 16 hours. On the procedure: as §2, §3
Test [6] deals with MLO-Y4 cells. As to the kind of experiment: Global cytosine 5-hydroxymethylation (5hmC). The settings on record: MLO-Y4, 3 μM, 16 hours. On the procedure: as §2, §3
In test [7] the test system is RAW 264.7 cells. As to the kind of experiment: RT-qPCR mRNA expression. The conditions noted are these: RAW 264.7, 3 μM. As to the method: (§4) Total RNA was extracted using the SV Total RNA Isolation kit (Promega) following the supplier's instructions. cDNA was synthesized from about 0.5 μg RNA using the First Strand cDNA Synthesis kit (Roche) as described by the supplier. The resulting cDNAs were subjected to quantitative PCR amplification with a real-time cycler using the QUANTITECT™ SYBR® Green PCR Kit (Qiagen, Hilden, Germany) for the genes Alpl, Fas, Lox, Tet1, Tet2, and TAQMAN® Gene expression Master Mix (Applied Biosystems, Foster City, Calif., USA) for measuring Runx2, Bglap2, Colla1, Tnfsf11, and 18S rRNA expression (for primers, see Table 1). SYBR-Green RT-qPCR was started with an initial denaturation step at 95° C. for 10 minutes and then continued with 45 cycles consisting of 30 seconds denaturation at 95° C., 30 seconds annealing at primer-specific temperatures, and extension at 72° C. For measurement of the TAQMAN® assays, an initial denaturation at 95° C. for 10 minutes was applied, followed by 45 cycles alternating 60 seconds at 60° C. and 15 seconds at 95° C. All RT-qPCR assays were performed in triplicate, and expression was evaluated using the comparative quantification method (Pfaffl, Nucleic Acids Res., 29:e45 (2001)).
On the technique in general: Real-time PCR tracks product formation cycle by cycle.

Test [8] has as its system MC3T3-E1 cells. As to the kind of experiment: RT-qPCR mRNA expression. The conditions noted are these: MC3T3-E1, 3 μM; for mRNA expression of Bglap2, Colla1, Lox and Alpl: 14 days. On the procedure:
as §4

In test [9] the test system is MLO-Y4 cells. As to the kind of experiment: RT-qPCR mRNA expression. The settings on record: MLO-Y4, 3 μM. On the procedure: as §4

Turning to `C[S+]([O-])CCCCN=C=S` [L-SFN], in the test with BMSCs, the ECM mineralization entry is recorded as “significantly increased”. In addition, in the test with RAW 264.7 cells [1], the “Caspase 8 and Caspase 3/7 activity” value is given as “stimulated”. Also, the “activity of caspase 8” value with MC3T3-E1 cells [2] and in the test with MLO-Y4 cells [3] was “significantly increased” throughout. In the test on RAW 264.7 cells [4], the “increase of global levels of 5hmC” value is reported as less than 2 fold. For the same compound, in the test with MC3T3-E1 cells [5], the “global 5hmC” value is “significant global increase”. The 5hmC levels entry with MLO-Y4 cells [6] is recorded as “did not elevate”. For the same compound, the figures for the “expression of the pro-apoptotic gene Fas” value in the test on RAW 264.7 cells [7] (8 hours) and with RAW 264.7 cells [7] (16 hours) were “not at 8 hours” and “up-regulated”, respectively. Moreover, the “Fas mRNA expression” value in the test with MC3T3-E1 cells [8] (8 hours) and with MLO-Y4 cells [9] (8 hours) was “not affected” throughout. In addition, the “mRNA expression of Bglap2, Colla1, Lox and Alpl” value with MC3T3-E1 cells [8] is given as “increased”.

For `C[S+]([O-])CCCCN=C=S` (racemic) [DL-SFN], the ECM mineralization entry in the test on BMSCs is given as “significantly increased”. Further, the “Caspase 8 and Caspase 3/7 activity” value in the test on RAW 264.7 cells [1] was “stimulated”. The “activities of the caspases 3/7” value in the test with MC3T3-E1 cells [2] and in the test with MLO-Y4 cells [3] was “significant increase” throughout. Also, the “activity of caspase 8” value with MC3T3-E1 cells [2] and with MLO-Y4 cells [3] was “significantly increased” throughout. Moreover, in the test on RAW 264.7 cells [4], the “increase of global levels of 5hmC” value is recorded as approximately 3 fold. The “global 5hmC” value with MC3T3-E1 cells [5] is listed as “significant global increase”. In the test on MLO-Y4 cells [6], the 5hmC levels result is given as “did not elevate”. For the same compound, the “Tet1 mRNA levels” value in the test on RAW 264.7 cells [7] (8 and 16 hours, Tet2 not upregulated) is on record as “upregulated”. The “expression of the pro-apoptotic gene Fas” value is “not at 8 hours” with RAW 264.7 cells [7] (8 hours) and “up-regulated” in the test with RAW 264.7 cells [7] (16 hours). The “Runx2 mRNA expression” value in the test on MC3T3-E1 cells [8] is recorded as “stimulates”. Moreover, the “Fas mRNA expression” value with MC3T3-E1 cells [8] (8 hours) is on record as “not affected”; in the test on MC3T3-E1 cells [8] (16 hours), “significantly increased”; in the test on MLO-Y4 cells [9] (8 hours), “not affected”; with MLO-Y4 cells [9] (16 hours) it was “significantly increased”. The “mRNA expression of Bglap2, Colla1, Lox and Alpl” value in the test on MC3T3-E1 cells [8] was “increased”. In the test with MLO-Y4 cells [9], the “mRNA expression for Tet1 or Tet2” value was “did not positively change”. For the same compound, the “Tnfsf11 mRNA expression” value in the test with MLO-Y4 cells [9] (3 and 8 days, significant only at 8 days) is “reduced”.
